Values after ≈ are worked out from the molar mass of the structure shown. Values joined by “and” are separate entries in the source; they are usually repeats but may differ in a detail not shown here. Equal values may be shown once.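 Five compound concentrations were applied to cells in 96-well plates for 48 hours; endpoints were derived by simple linear interpolation of the resulting dose-response curve. GI50 = concentration required for 50% inhibition of growth. Definition used: TGI = concentration required for complete inhibition of growth.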
What was measured:
Test in all cases: NCI tumour cell line growth inhibition, 48 h
SR leukemia = system: SR leukemia
TK-10 renal = system: TK-10 renal
786-0 renal = system: 786-0 renal
A498 renal = system: A498 renal
A549 NSCLC = system: A549 NSCLC
ACHN renal = system: ACHN renal
BT-549 breast = system: BT-549 breast
CAKI-1 renal = system: CAKI-1 renal
CCRF-CEM leukemia = system: CCRF-CEM leukemia
COLO 205 colon = system: COLO 205 colon
DU-145 prostate = system: DU-145 prostate
EKVX NSCLC = system: EKVX NSCLC
HCC-2998 colon = system: HCC-2998 colon
HCT-116 colon = system: HCT-116 colon
HCT-15 colon = system: HCT-15 colon
HOP-62 NSCLC = system: HOP-62 NSCLC
HOP-92 NSCLC = system: HOP-92 NSCLC
HS 578T breast = system: HS 578T breast
HT29 colon = system: HT29 colon
K-562 leukemia = system: K-562 leukemia
KM12 colon = system: KM12 colon
LOX IMVI melanoma = system: LOX IMVI melanoma
M14 melanoma = system: M14 melanoma
MALME-3M melanoma = system: MALME-3M melanoma
MCF7 breast = system: MCF7 breast
MDA-MB-231 breast = system: MDA-MB-231 breast
MDA-MB-435 = system: MDA-MB-435
MOLT-4 leukemia = system: MOLT-4 leukemia
NCI-H226 lung = system: NCI-H226 lung
NCI-H23 lung = system: NCI-H23 lung
NCI-H460 lung = system: NCI-H460 lung
NCI-H522 lung = system: NCI-H522 lung
OVCAR-3 ovarian = system: OVCAR-3 ovarian
OVCAR-4 ovarian = system: OVCAR-4 ovarian
OVCAR-5 ovarian = system: OVCAR-5 ovarian
OVCAR-8 ovarian = system: OVCAR-8 ovarian
PC-3 prostate = system: PC-3 prostate
RPMI-8226 leukemia = system: RPMI-8226 leukemia
RXF 393 renal = system: RXF 393 renal
SF-268 CNS = system: SF-268 CNS
SF-295 CNS = system: SF-295 CNS
SF-539 CNS = system: SF-539 CNS
SK-MEL-2 melanoma = system: SK-MEL-2 melanoma
SK-MEL-28 melanoma = system: SK-MEL-28 melanoma
SK-MEL-5 melanoma = system: SK-MEL-5 melanoma
SK-OV-3 ovarian = system: SK-OV-3 ovarian
SN12C renal = system: SN12C renal
SNB-19 CNS = system: SNB-19 CNS
SNB-75 CNS = system: SNB-75 CNS
SW-620 colon = system: SW-620 colon
T-47D breast = system: T-47D breast
U251 CNS = system: U251 CNS
UACC-257 melanoma = system: UACC-257 melanoma
UACC-62 melanoma = system: UACC-62 melanoma
UO-31 renal = system: UO-31 renal
IGROV1 ovarian = system: IGROV1 ovarian
NCI/ADR-RES ovarian = system: NCI/ADR-RES ovarian

CS(=O)(=O)CC(Cc1ccccc1)C(=O)O (stereo not given)
GI50 (SR leukemia): 10.6 µg/mL (≈ 43.7 µM) | GI50 (TK-10 renal): 92.1 µg/mL

Cc1ccc2[nH]c(C(=O)NN3C(=O)C(C)SC34CCCCC4C)c(-c3ccccc3)c2c1 (stereo not given)
GI50 (786-0 renal): 22.2 µM | TGI (786-0 renal): 50.9 µM | GI50 (A498 renal): 15 µM | TGI (A498 renal): 32 µM | GI50 (A549 NSCLC): 15.9 µM | TGI (A549 NSCLC): 32.9 µM | GI50 (ACHN renal): 17.3 µM | TGI (ACHN renal): 36.6 µM | GI50 (BT-549 breast): 18.8 µM | TGI (BT-549 breast): 34.5 µM | GI50 (CAKI-1 renal): 17 µM | TGI (CAKI-1 renal): 40.7 µM | GI50 (CCRF-CEM leukemia): 21.7 µM | TGI (CCRF-CEM leukemia): 73 µM | GI50 (COLO 205 colon): 18 µM | TGI (COLO 205 colon): 38.9 µM | GI50 (DU-145 prostate): 21.7 µM | TGI (DU-145 prostate): 50.7 µM | GI50 (EKVX NSCLC): 24.5 µM | TGI (EKVX NSCLC): 61.9 µM | GI50 (HCC-2998 colon): 19.5 µM | TGI (HCC-2998 colon): 35.5 µM | GI50 (HCT-116 colon): 17.4 µM | TGI (HCT-116 colon): 35.6 µM | GI50 (HCT-15 colon): 18 µM | TGI (HCT-15 colon): 38.5 µM | GI50 (HOP-62 NSCLC): 20.2 µM | TGI (HOP-62 NSCLC): 37.7 µM | GI50 (HOP-92 NSCLC): 19.5 µM | TGI (HOP-92 NSCLC): 38.5 µM | GI50 (HS 578T breast): 14.4 µM | TGI (HS 578T breast): 43.2 µM | GI50 (HT29 colon): 15.5 µM | TGI (HT29 colon): 39.3 µM | GI50 (K-562 leukemia): 18.5 µM | TGI (K-562 leukemia): 60 µM | GI50 (KM12 colon): 18.5 µM | TGI (KM12 colon): 39.9 µM | GI50 (LOX IMVI melanoma): 18.9 µM | TGI (LOX IMVI melanoma): 35.4 µM | GI50 (M14 melanoma): 20.2 µM | TGI (M14 melanoma): 38.8 µM | GI50 (MALME-3M melanoma): 20.4 µM | TGI (MALME-3M melanoma): 38.1 µM | GI50 (MCF7 breast): 23.1 µM | TGI (MCF7 breast): > 100 µM | GI50 (MDA-MB-231 breast): 17.4 µM | TGI (MDA-MB-231 breast): 34.9 µM | GI50 (MDA-MB-435): 16.4 µM | TGI (MDA-MB-435): 33.1 µM | GI50 (MOLT-4 leukemia): 12.2 µM | TGI (MOLT-4 leukemia): 41 µM | GI50 (NCI-H226 lung): 17.4 µM | TGI (NCI-H226 lung): 34.2 µM | GI50 (NCI-H23 lung): 24.7 µM | TGI (NCI-H23 lung): 53.5 µM | GI50 (NCI-H460 lung): 22 µM | TGI (NCI-H460 lung): 58.5 µM | GI50 (NCI-H522 lung): 2.4 µM | TGI (NCI-H522 lung): 16.7 µM | GI50 (OVCAR-3 ovarian): 14.4 µM | TGI (OVCAR-3 ovarian): 31.7 µM | GI50 (OVCAR-4 ovarian): 15.9 µM | TGI (OVCAR-4 ovarian): 36.1 µM | GI50 (OVCAR-5 ovarian): 20.3 µM | TGI (OVCAR-5 ovarian): 40.3 µM | GI50 (OVCAR-8 ovarian): 20.9 µM | TGI (OVCAR-8 ovarian): 43.2 µM | GI50 (PC-3 prostate): 15.3 µM | TGI (PC-3 prostate): 37.6 µM | GI50 (RPMI-8226 leukemia): 21.4 µM | TGI (RPMI-8226 leukemia): 64 µM | GI50 (RXF 393 renal): 0.415 µM | TGI (RXF 393 renal): 21.1 µM | GI50 (SF-268 CNS): 18.8 µM | TGI (SF-268 CNS): 43.6 µM | GI50 (SF-295 CNS): 17.8 µM | TGI (SF-295 CNS): 35.5 µM | GI50 (SF-539 CNS): 22.3 µM | TGI (SF-539 CNS): 44.9 µM | GI50 (SK-MEL-2 melanoma): 12 µM | TGI (SK-MEL-2 melanoma): 26.5 µM | GI50 (SK-MEL-28 melanoma): 19.4 µM | TGI (SK-MEL-28 melanoma): 38.8 µM | GI50 (SK-MEL-5 melanoma): 16 µM | TGI (SK-MEL-5 melanoma): 33.5 µM | GI50 (SK-OV-3 ovarian): 37.9 µM | TGI (SK-OV-3 ovarian): > 100 µM | GI50 (SN12C renal): 15.7 µM | TGI (SN12C renal): 31.6 µM | GI50 (SNB-19 CNS): 27 µM | TGI (SNB-19 CNS): 77.5 µM | GI50 (SNB-75 CNS): 21.2 µM | TGI (SNB-75 CNS): 41.7 µM | GI50 (SW-620 colon): 19.8 µM | TGI (SW-620 colon): 53.2 µM | GI50 (T-47D breast): 24.6 µM | TGI (T-47D breast): 78.9 µM | GI50 (TK-10 renal): 19.1 µM | TGI (TK-10 renal): 35.6 µM | GI50 (U251 CNS): 16.1 µM | TGI (U251 CNS): 32.8 µM | GI50 (UACC-257 melanoma): 20.4 µM | TGI (UACC-257 melanoma): 37.6 µM | GI50 (UACC-62 melanoma): 13.4 µM | TGI (UACC-62 melanoma): 28.3 µM | GI50 (UO-31 renal): 16.8 µM | TGI (UO-31 renal): 32.6 µM

COc1ccc(-c2cc(-c3ccccc3)c(C#N)c(=O)n2C2OC(COC(C)=O)C(OC(C)=O)C(OC(C)=O)C2OC(C)=O)cc1 (stereo not given)
GI50 (RPMI-8226 leukemia): 47.3 µM and 11.5 µM | TGI (RPMI-8226 leukemia): > 100 µM | TGI (UO-31 renal): > 100 µM

NC(N)=N/N=C/c1c(-c2ccc(Cl)c([N+](=O)[O-])c2)nc2ccccn12
GI50 (786-0 renal): 0.512 µM | TGI (786-0 renal): 1.9 µM | GI50 (A498 renal): 5.82 µM | TGI (A498 renal): 14.4 µM | GI50 (A549 NSCLC): 1.63 µM | TGI (A549 NSCLC): 2.99 µM | GI50 (ACHN renal): 11.3 µM | TGI (ACHN renal): 34.9 µM | GI50 (BT-549 breast): 0.119 µM | TGI (BT-549 breast): 1.18 µM | GI50 (CAKI-1 renal): 11.8 µM | TGI (CAKI-1 renal): 42.4 µM | GI50 (DU-145 prostate): 1.94 µM | TGI (DU-145 prostate): 5.6 µM | GI50 (EKVX NSCLC): 2.5 µM | TGI (EKVX NSCLC): 13 µM | GI50 (HCC-2998 colon): 1.5 µM | TGI (HCC-2998 colon): 3.1 µM | GI50 (HCT-116 colon): 0.362 µM | TGI (HCT-116 colon): 1.55 µM | GI50 (HCT-15 colon): 9.18 µM | TGI (HCT-15 colon): 56.1 µM | GI50 (HOP-62 NSCLC): 1.56 µM | TGI (HOP-62 NSCLC): 2.9 µM | GI50 (HS 578T breast): 24.2 µM | TGI (HS 578T breast): 60.2 µM | GI50 (HT29 colon): 1.42 µM | TGI (HT29 colon): > 100 µM | GI50 (IGROV1 ovarian): 1.36 µM | TGI (IGROV1 ovarian): 2.85 µM | GI50 (MDA-MB-231 breast): 1.69 µM | TGI (MDA-MB-231 breast): 3.29 µM | GI50 (MOLT-4 leukemia): 1.68 µM | TGI (MOLT-4 leukemia): 3.64 µM | GI50 (NCI-H23 lung): 1.92 µM | TGI (NCI-H23 lung): 3.95 µM | GI50 (NCI/ADR-RES ovarian): > 100 µM | TGI (NCI/ADR-RES ovarian): > 100 µM | GI50 (OVCAR-3 ovarian): 1.59 µM | TGI (OVCAR-3 ovarian): 3.11 µM | GI50 (OVCAR-5 ovarian): 1.73 µM | TGI (OVCAR-5 ovarian): 3.21 µM | GI50 (PC-3 prostate): 1.37 µM | TGI (PC-3 prostate): 2.65 µM | GI50 (SF-268 CNS): 1.35 µM | TGI (SF-268 CNS): 2.93 µM | GI50 (SF-295 CNS): 1.82 µM | TGI (SF-295 CNS): 3.42 µM | GI50 (SF-539 CNS): 0.122 µM | TGI (SF-539 CNS): 1.53 µM | GI50 (SK-MEL-5 melanoma): 13.3 µM | TGI (SK-MEL-5 melanoma): 41.3 µM | GI50 (SN12C renal): 1.87 µM | TGI (SN12C renal): 3.66 µM | GI50 (SW-620 colon): 1.46 µM | TGI (SW-620 colon): 3.16 µM | GI50 (T-47D breast): 2.08 µM | TGI (T-47D breast): 5.01 µM | GI50 (UACC-257 melanoma): 6.76 µM | TGI (UACC-257 melanoma): 31 µM | GI50 (UO-31 renal): 1.71 µM | TGI (UO-31 renal): 3.79 µM
